Assay results: patent US10287297B2, “Epoxyazulene derivatives useful for treating cancer and diabetes” (The United States of America, as represented by the …, priority 2015, dated 2019)

Assays:
Type in all cases: cell-based
CCRF-CEM = test: NCI 60 cell assay, leukemia CCRF-CEM; settings: Homo sapiens, 48 h, drug exposure two days, SRB endpoint, read-out: GI-50 value
Experimental: (§1) Samples were tested in the standard National Cancer Institute 60-cell line protocol. First, they were tested against all 60 cell lines in a single final concentration of 10 micromolar. Then, they were separately tested in five 10-fold dilutions. The drug exposure was two days, with an SRB endpoint.

HL-60(TB) = test: NCI 60 cell assay, leukemia HL-60(TB); settings: Homo sapiens, 48 h; HL-60(TB) (leukemia); drug exposure two days, SRB endpoint; read-out: GI-50 value
Experimental: as §1

K-562 = test: NCI 60 cell assay, leukemia K-562; settings: Homo sapiens, K562, 48 h; K-562 (leukemia); drug exposure two days, SRB endpoint; read-out: GI-50 value
Experimental: as §1

MOLT-4 = test: NCI 60 cell assay, leukemia MOLT-4; settings: Homo sapiens, 48 h; MOLT-4 (leukemia); drug exposure two days, SRB endpoint; read-out: GI-50 value
Experimental: as §1

SR = test: NCI 60 cell assay, leukemia SR; settings: Homo sapiens, 48 h, drug exposure two days, SRB endpoint, read-out: GI-50 value
Experimental: as §1

NCI-H23 = test: NCI 60 cell assay, NSCLC NCI-H23; settings: Homo sapiens, 48 h, drug exposure two days, SRB endpoint, read-out: GI-50 value
Experimental: as §1

NCI-H322M = test: NCI 60 cell assay, NSCLC NCI-H322M; settings: Homo sapiens, 48 h, drug exposure two days, SRB endpoint, read-out: GI-50 value
Experimental: as §1

NCI-H460 = test: NCI 60 cell assay, NSCLC NCI-H460; settings: Homo sapiens, 48 h, drug exposure two days, SRB endpoint, read-out: GI-50 value
Experimental: as §1

NCI-H522 = test: NCI 60 cell assay, NSCLC NCI-H522; settings: Homo sapiens, 48 h, drug exposure two days, SRB endpoint, read-out: GI-50 value
Experimental: as §1

HCC-2998 = test: NCI 60 cell assay, colon HCC-2998; settings: Homo sapiens, 48 h; HCC-2998 (colon); drug exposure two days, SRB endpoint; read-out: GI-50 value
Experimental: as §1

HCT-15 = test: NCI 60 cell assay, colon HCT-15; settings: Homo sapiens, 48 h; HCT-15 (colon); drug exposure two days, SRB endpoint; read-out: GI-50 value
Experimental: as §1

HT29 = test: NCI 60 cell assay, colon HT29; settings: Homo sapiens, HT-29, 48 h, drug exposure two days, SRB endpoint, read-out: GI-50 value
Experimental: as §1

KM12 = test: NCI 60 cell assay, colon KM12; settings: Homo sapiens, 48 h, drug exposure two days, SRB endpoint, read-out: GI-50 value
Experimental: as §1

SW-620 = test: NCI 60 cell assay, colon SW-620; settings: Homo sapiens, 48 h; SW-620 (colon); drug exposure two days, SRB endpoint; read-out: GI-50 value
Experimental: as §1

SF-539 = test: NCI 60 cell assay, CNS SF-539; settings: Homo sapiens, 48 h; SF-539 (CNS); drug exposure two days, SRB endpoint; read-out: GI-50 value
Experimental: as §1

M14 = test: NCI 60 cell assay, melanoma M14; settings: Homo sapiens, 48 h, drug exposure two days, SRB endpoint, read-out: GI-50 value
Experimental: as §1

MDA-MB-435 = test: NCI 60 cell assay, melanoma MDA-MB-435; settings: Homo sapiens, 48 h; MDA-MB-435 (melanoma); drug exposure two days, SRB endpoint; read-out: GI-50 value
Experimental: as §1

SK-MEL-28 = test: NCI 60 cell assay, melanoma SK-MEL-28; settings: Homo sapiens, 48 h; SK-MEL-28 (melanoma); drug exposure two days, SRB endpoint; read-out: GI-50 value
Experimental: as §1

UACC-257 = test: NCI 60 cell assay, melanoma UACC-257; settings: Homo sapiens, 48 h; UACC-257 (melanoma); drug exposure two days, SRB endpoint; read-out: GI-50 value
Experimental: as §1

OVCAR-3 = test: NCI 60 cell assay, ovarian OVCAR-3; settings: Homo sapiens, 48 h; OVCAR-3 (ovarian); drug exposure two days, SRB endpoint; read-out: GI-50 value
Experimental: as §1

OVCAR-4 = test: NCI 60 cell assay, ovarian OVCAR-4; settings: Homo sapiens, 48 h; OVCAR-4 (ovarian); drug exposure two days, SRB endpoint; read-out: GI-50 value
Experimental: as §1

OVCAR-5 = test: NCI 60 cell assay, ovarian OVCAR-5; settings: Homo sapiens, 48 h; OVCAR-5 (ovarian); drug exposure two days, SRB endpoint; read-out: GI-50 value
Experimental: as §1

OVCAR-8 = test: NCI 60 cell assay, ovarian OVCAR-8; settings: Homo sapiens, 48 h; OVCAR-8 (ovarian); drug exposure two days, SRB endpoint; read-out: GI-50 value
Experimental: as §1

786-0 = test: NCI 60 cell assay, renal 786-0; settings: Homo sapiens, 48 h; 786-0 (renal); drug exposure two days, SRB endpoint; read-out: GI-50 value
Experimental: as §1

A498 = test: NCI 60 cell assay, renal A498; settings: Homo sapiens, 48 h, drug exposure two days, SRB endpoint, read-out: GI-50 value
Experimental: as §1

ACHN = test: NCI 60 cell assay, renal ACHN; settings: Homo sapiens, 48 h, drug exposure two days, SRB endpoint, read-out: GI-50 value
Experimental: as §1

RXF 393 = test: NCI 60 cell assay, renal RXF 393; settings: Homo sapiens, 48 h; RXF 393 (renal); drug exposure two days, SRB endpoint; read-out: GI-50 value
Experimental: as §1

UO-31 = test: NCI 60 cell assay, renal UO-31; settings: Homo sapiens, 48 h; UO-31 (renal); drug exposure two days, SRB endpoint; read-out: GI-50 value
Experimental: as §1

PC-3 = test: NCI 60 cell assay, prostate PC-3; settings: Homo sapiens, 48 h; PC-3 (prostate); drug exposure two days, SRB endpoint; read-out: GI-50 value
Experimental: as §1

DU-145 = test: NCI 60 cell assay, prostate DU-145; settings: Homo sapiens, 48 h; DU-145 (prostate); drug exposure two days, SRB endpoint; read-out: GI-50 value
Experimental: as §1

MDA-MB-231/ATCC = test: NCI 60 cell assay, breast MDA-MB-231/ATCC; settings: Homo sapiens, 48 h; MDA-MB-231/ATCC (breast); drug exposure two days, SRB endpoint; read-out: GI-50 value
Experimental: as §1

T-47D = test: NCI 60 cell assay, breast T-47D; settings: Homo sapiens, T47D, 48 h; T-47D (breast); drug exposure two days, SRB endpoint; read-out: GI-50 value
Experimental: as §1

MDA-MB-468 = test: NCI 60 cell assay, breast MDA-MB-468; settings: Homo sapiens, 48 h; MDA-MB-468 (breast); drug exposure two days, SRB endpoint; read-out: GI-50 value
Experimental: as §1

| SMILES | GI50 (CCRF-CEM) [µM] | GI50 (HL-60(TB)) [µM] | GI50 (K-562) [µM] | GI50 (MOLT-4) [µM] | GI50 (SR) [µM] | GI50 (NCI-H23) [µM] | GI50 (NCI-H322M) [µM] | GI50 (NCI-H460) [µM] | GI50 (NCI-H522) [µM] | GI50 (HCC-2998) [µM] | GI50 (HCT-15) [µM] | GI50 (HT29) [µM] | GI50 (KM12) [µM] | GI50 (SW-620) [µM] | GI50 (SF-539) [µM] | GI50 (M14) [µM] | GI50 (MDA-MB-435) [µM] | GI50 (SK-MEL-28) [µM] | GI50 (UACC-257) [µM] | GI50 (OVCAR-3) [µM] | other results |
| --- | --- | --- | --- | --- | --- | --- | --- | --- | --- | --- | --- | --- | --- | --- | --- | --- | --- | --- | --- | --- | --- |
| CC1=C2[C@@H](CC1)[C@]1(C)O[C@@](c3ccccc3)(C[C@H]1OC(=O)CO)[C@H]2OC(=O)C=Cc1ccccc1 [(Ir), (3aR,4S,5R,7R,8S)-5-(2-hydroxyacetoxy)-1,4-dimethyl-7-phenyl-2,3,3a,4,5,6,7,8-octahydro-4,7-epoxyazulen-8-yl cinnamate] | 20 | 16 | 16 | 12 | 11 | 17 | 22 | 15 | 17 | 15 | 13 | 16 | 16 | 21 | 18 | 17 | 17 | 18 | 19 | 15 | GI50 (OVCAR-4): 15 µM; GI50 (OVCAR-5): 22 µM; GI50 (OVCAR-8): 0.26 µM; GI50 (786-0): 14 µM; GI50 (A498): 0.089 µM; GI50 (ACHN): 0.035 µM; GI50 (RXF 393): 0.027 µM; GI50 (UO-31): 0.55 µM; GI50 (PC-3): 10 µM; GI50 (DU-145): 17 µM; GI50 (MDA-MB-231/ATCC): 19 µM; GI50 (T-47D): 11 µM; GI50 (MDA-MB-468): 15 µM |
| CC1=C2[C@@H](CC1)[C@]1(C)O[C@@](C(C)C)(C[C@H]1OC(=O)CO)[C@H]2OC(=O)/C=C/c1ccccc1 [Compound (Ih)] | 42 | 35 | 38 | 40 | 32 | 42 | 43 | 37 | 40 | 100 | 32 | 39 | 40 | 40 | 40 | 43 | 43 | 42 | 40 | 39 | GI50 (OVCAR-4): 35 µM; GI50 (OVCAR-5): 41 µM; GI50 (OVCAR-8): 0.09 µM; GI50 (786-0): 35 µM; GI50 (A498): 0.034 µM; GI50 (ACHN): 0.022 µM; GI50 (RXF 393): 0.13 µM; GI50 (UO-31): 0.04 µM; GI50 (PC-3): 26 µM; GI50 (DU-145): 41 µM; GI50 (MDA-MB-231/ATCC): 39 µM; GI50 (T-47D): 27 µM; GI50 (MDA-MB-468): 33 µM |
| CC1=C2[C@@H](CC1)[C@]1(C)O[C@@](C(C)C)(C[C@H]1OC(=O)CO)[C@H]2OC(=O)C1CC1c1ccccc1 (stereo partly drawn) [Compound (Ij), (3aR,4S,5R,7R,8S)-5-(2-hydroxyacetoxy)-7-isopropyl-1,4-dimethyl-2,3,3a,4,5,6,7,8-octahydro-4,7-epoxyazulen-8-yl-2-phenylcyclopropane-1-carboxylate] | 18 | 14 | 15 | 9 | 14 | 15 | 19 | 16 | 13 | 14 | 13 | 13 | 13 | 17 | 17 | 13 | 15 | 17 | 16 | 14 | GI50 (OVCAR-4): 14 µM; GI50 (OVCAR-5): 20 µM; GI50 (OVCAR-8): 13 µM; GI50 (786-0): 15 µM; GI50 (A498): 0.27 µM; GI50 (ACHN): 1.4 µM; GI50 (RXF 393): 0.069 µM; GI50 (UO-31): 11 µM; GI50 (PC-3): 9 µM; GI50 (DU-145): 16 µM; GI50 (MDA-MB-231/ATCC): 15 µM; GI50 (T-47D): 4.6 µM; GI50 (MDA-MB-468): 13 µM |
| CC1=C2[C@@H](CC1)[C@]1(C)O[C@@](C3CC3)(C[C@H]1OC(=O)CO)[C@H]2OC(=O)C=Cc1ccccc1 [Compound (Is), (3aR,4S,5R,7R,8S)-7-cyclopropyl-5-(2-hydroxyacetoxy)-1,4-dimethyl-2,3,3a,4,5,6,7,8-octahydro-4,7-epoxyazulen-8-yl cinnamate] | 19 | 12 | 20 | 16 | 17 | 17 | 17 | 18 | 17 | 17 | 14 | 17 | 17 | 20 | 17 | 17 | 17 | 18 | 16 | 16 | GI50 (OVCAR-4): 15 µM; GI50 (OVCAR-5): 17 µM; GI50 (OVCAR-8): 0.054 µM; GI50 (786-0): 13 µM; GI50 (A498): 0.11 µM; GI50 (ACHN): 0.028 µM; GI50 (RXF 393): 0.014 µM; GI50 (UO-31): 0.33 µM; GI50 (PC-3): 15 µM; GI50 (DU-145): 18 µM; GI50 (MDA-MB-231/ATCC): 18 µM; GI50 (T-47D): 14 µM; GI50 (MDA-MB-468): 15 µM |
